This note sets out measurements from US20140349943A1, “TOPICAL FORMULATIONS OF CHEMERIN C15 PEPTIDES FOR THE TREATMENT OF DERMATOLOGICAL CONDITIONS” (priority 2011, published 2014).

Like-named read-outs stand apart in the source and are kept apart here. Peptide text beside a SMILES is read from it.

Common to all, as to type: cell-based
For one assay, the target named is T1, GPR1 (Homo sapiens, UniProt P46091).
T1 construct: host or cells: CHO
T1 sequence (P46091 1-355): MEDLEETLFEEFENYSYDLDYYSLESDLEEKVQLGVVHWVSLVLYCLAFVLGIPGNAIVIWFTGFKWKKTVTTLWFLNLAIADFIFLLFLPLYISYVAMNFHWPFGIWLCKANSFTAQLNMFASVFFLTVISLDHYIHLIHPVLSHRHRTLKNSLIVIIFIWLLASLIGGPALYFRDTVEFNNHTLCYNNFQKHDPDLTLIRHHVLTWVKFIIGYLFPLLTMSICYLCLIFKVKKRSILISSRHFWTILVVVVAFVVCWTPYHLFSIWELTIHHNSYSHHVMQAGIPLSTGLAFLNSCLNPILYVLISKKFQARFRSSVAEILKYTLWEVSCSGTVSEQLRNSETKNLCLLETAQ
Briefly: PathHunter β-Arrestin assay, GPR1, agonist and antagonist mode. The following applies: for agonist activity, in words / Rank Order / % Max Activity / % Max Inhibition / antagonist activity, in words: GPR1; for agonist activity, in words: FIG. 2A/2B; for Rank Order: agonist; for % Max Activity: agonist mode; for % Max Inhibition: antagonist mode, chemerin at EC80; for antagonist activity, in words: chemerin at 80% maximum signal. The protocol: (§1) The DiscoveRx PathHunter™ eXpress GPCR activity assay was employed to test agonist and antagonist activities of the chemerin peptides against the GPCRs ChemR23 and GPR1. Two assay formats were tested, the PathHunter β-Arrestin assay and the Hit Hunter cAMP Hunter assay.
(§2) The PathHunter β-Arrestin assay monitors the activation of a GPCR in a homogenous, non-imaging assay format using a technology developed by DiscoveRx called complementation, which utilizes an enzyme fragment complementation (EFC) assay with β-galactosidase (β-Gal) as the functional reporter. The enzyme is split into two complementary portions expressed as fusion proteins in the cell. The Enzyme Acceptor (EA) is fused to β-Arrestin and the ProLink donor peptide is fused to the GPCR of interest. Upon GPCR stimulation, β-Arrestin is recruited to the receptor for desensitization, bringing the two fragments of β-Gal together and allowing complementation to occur.
(§3) The assay involves CHO cell lines that express 1) a GPCR of interest (e.g. ChemR23 or GPR1) that has a fragment of the βgal enzyme fused to the C-terminus of the receptor and 2) a β-arrestin fused to the main β-gal enzyme. When the agonist binds to the receptor, β-arrestin is recruited to the receptor and the β-gal enzyme is complemented by the fragment from the GPCR thus forming a functional β-gal enzyme. A substrate is then added and luminescence is generated to detect β-arrestin recruitment.
(§4) The protocol used was a standard protocol employed by DiscoveRx PathHunter™ profiling service. […] Once it was established that the cells were healthy and growing normally, cells were passaged from flasks using cell dissociation reagent and seeded into white walled clear bottom 384-well microplates for compound profiling. For profiling, cells were seeded at a density of 5000 cells per well in a total volume of 20 μL and were allowed to adhere and recover overnight prior to compound addition.
(§5) For the agonist assay, intermediate dilution of compound stocks were generated such that 5 μL of 5× compound could be added to each well with a final DMSO concentration of 1% of total volume. For profiling compound in agonist mode, the cells were incubated in the presence of compound at 37° C. for 90 minutes.
(§6) For the antagonist assay, agonist dose curves were performed the morning of profiling to determine the EC80 value for the following antagonist testing with compounds. 5 μL of 5× agonist (i.e. chemerin) was added to each well with an equal concentration of vehicle present. EC80 agonist concentration was determined directly from agonist dose curve. For antagonist determination, cells were preincubated with antagonist followed by agonist challenge at the EC80 concentration: 4. 5 μL of 5× compound added to cells and incubated at 37° C. for 30 minutes. 5. 5 μL of 6× EC80 agonist added to cells and incubated at 37° C. for 90 minutes.
(§7) Microplates were read following signal generation with a PerkinElmer Envision™ instrument for chemiluminescent signal detection
(§8) Dose curves in the presence and absence of compound were plotted using GraphPad Prism or Activity Base. For agonist mode assays, percentage activity was calculated using the following formula: % Activity=100%×(Mean RLU of test sample−mean RLU of vehicle control)/(mean MAX RLU control ligand−mean RLU of vehicle control)). For antagonist mode assays, percentage inhibition was calculated using the following formula: % Inhibition=100%×(1−(Mean RLU of test sample−mean RLU of vehicle control)/(mean RLU of EC80 control−mean RLU of vehicle control)).

For another assay, the target named is T2, ChemR23 (CMKLR1) (Homo sapiens, UniProt Q99788).
T2 construct: host or cells: CHO
T2 sequence (Q99788 1-373): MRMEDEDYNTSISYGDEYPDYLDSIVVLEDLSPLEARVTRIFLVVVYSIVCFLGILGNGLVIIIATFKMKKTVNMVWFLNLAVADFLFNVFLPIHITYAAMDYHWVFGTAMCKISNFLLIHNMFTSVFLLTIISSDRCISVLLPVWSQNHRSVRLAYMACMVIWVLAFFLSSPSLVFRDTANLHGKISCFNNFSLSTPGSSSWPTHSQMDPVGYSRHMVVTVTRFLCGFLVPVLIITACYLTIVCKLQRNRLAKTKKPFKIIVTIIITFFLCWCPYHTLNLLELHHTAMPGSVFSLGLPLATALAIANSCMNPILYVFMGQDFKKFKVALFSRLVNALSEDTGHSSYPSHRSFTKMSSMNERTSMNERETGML
As to the kind of experiment: PathHunter β-Arrestin assay, ChemR23 (CMKLR1), agonist and antagonist mode. As to conditions: for Rank Order / % Max Activity / % Max Inhibition: ChemR23; for Rank Order: agonist; for % Max Activity: agonist mode; for % Max Inhibition: antagonist mode, chemerin at EC80; for agonist activity, in words / antagonist activity, in words: human ChemR23; for agonist activity, in words: FIG. 2A/2B; for antagonist activity, in words: chemerin at 80% maximum signal. As to the method:
as §1, §2, §3, §4, §5, §6, §7, §8

The next assay concerns the target T3, mChemR23 (Mus musculus, UniProt P97468).
T3 construct: host or cells: CHO (stated generally for the PathHunter assay)
T3 sequence (P97468 1-371): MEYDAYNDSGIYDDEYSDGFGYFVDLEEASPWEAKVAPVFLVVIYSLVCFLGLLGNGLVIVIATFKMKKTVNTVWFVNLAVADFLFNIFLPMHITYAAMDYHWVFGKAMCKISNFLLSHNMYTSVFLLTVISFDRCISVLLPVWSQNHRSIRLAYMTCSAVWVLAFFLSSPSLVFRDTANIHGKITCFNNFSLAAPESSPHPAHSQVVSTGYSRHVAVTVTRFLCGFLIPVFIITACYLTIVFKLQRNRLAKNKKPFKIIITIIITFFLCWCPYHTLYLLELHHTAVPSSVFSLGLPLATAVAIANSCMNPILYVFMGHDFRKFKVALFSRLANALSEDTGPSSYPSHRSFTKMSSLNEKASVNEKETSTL
Briefly: PathHunter β-Arrestin assay, mouse ChemR23. The protocol:
as §1, §2, §3, §4, §5
For the antagonist assay, agonist dose curves were performed the morning of profiling to determine the EC80 value for the following antagonist testing with compounds. 5 μL of 5× agonist (i.e. chemerin) was added to each well with an equal concentration of vehicle present. EC80 agonist concentration was determined directly from agonist dose curve. For antagonist determination, cells were preincubated with antagonist followed by agonist challenge at the EC80 concentration: 4. 5 μL of 5× compound added to cells and incubated at 37° C. for 30 minutes. 5. […]
as §7, §8

As for `C[C@H](N)C(=O)NCC(=O)N[C@@H](CCC(=O)O)C(=O)N[C@@H](CC(=O)O)C(=O)N1CCC[C@H]1C(=O)N[C@@H](Cc1c[nH]cn1)C(=O)N[C@@H](CO)C(=O)N[C@@H](Cc1ccccc1)C(=O)N[C@@H](Cc1ccc(O)cc1)C(=O)N[C@@H](Cc1ccccc1)C(=O)N1CCC[C@H]1C(=O)NCC(=O)N[C@@H](CCC(N)=O)C(=O)N[C@@H](Cc1ccccc1)C(=O)N[C@@H](C)C(=O)O` [C15 (human)] (H-AGEDPHSFYFPGQFA-OH; N-terminus and C-terminus assumed), at GPR1, the IC50 was > 10 µM; the “agonist activity, in words” value is given as “neither human nor mouse chemerin C15 peptides acted as agonists”; the “Rank Order” value is given as 3; the “% Max Activity” value is on record as 10.6%. Also, on GPR1, the “% Max Inhibition” value is 0% and the “antagonist activity, in words” value was “neither human nor mouse chemerin C15 peptides acted as antagonists”. Also, on ChemR23 (CMKLR1), the EC50 is > 10 µM, the IC50 was > 10 µM, the “Rank Order” value was 3 and the “% Max Activity” value is recorded as 0.8%. On ChemR23 (CMKLR1), the “% Max Inhibition” value amounted to 0%; the “agonist activity, in words” value was “neither human nor mouse chemerin C15 peptides acted as agonists”; the “antagonist activity, in words” value is given as “neither human nor mouse chemerin C15 peptides acted as antagonists”. Moreover, the EC50 at mChemR23 is > 10 µM.
Take `C[C@H](N)C(=O)NCC(=O)N[C@@H](CCC(=O)O)C(=O)N[C@@H](CC(=O)O)C(=O)N1CCC[C@H]1C(=O)N[C@@H](Cc1c[nH]cn1)C(=O)N[C@@H](CO)C(=O)N[C@@H](Cc1ccccc1)C(=O)N[C@@H](Cc1ccc(O)cc1)C(=O)N[C@@H](Cc1ccccc1)C(=O)N1CCC[C@H]1C(=O)NCC(=O)N[C@@H](CCC(N)=O)C(=O)N[C@@H](Cc1ccccc1)C(=O)N[C@@H](C)C(=O)N[C@@H](Cc1ccccc1)C(=O)N[C@@H](CO)C(=O)O` [C17 (human)] (H-AGEDPHSFYFPGQFAFS-OH; N-terminus and C-terminus assumed): on GPR1, the IC50 was > 10 µM; the “agonist activity, in words” value was “exhibited agonist activity”; the “Rank Order” value is on record as 1; the “% Max Activity” value is listed as 80.9%. Moreover, the “% Max Inhibition” value on GPR1 came to 0%. Also, on ChemR23 (CMKLR1), the IC50 was > 10 µM, the “Rank Order” value is given as 2, the “% Max Activity” value was found to be 67.5% and the “% Max Inhibition” value turned out to be 0%. Further, the “agonist activity, in words” value at ChemR23 (CMKLR1) is on record as “exhibited agonist activity”. Further, the IC50 on mChemR23 is > 10 µM.
`CC(C)C[C@H](NC(=O)[C@H](Cc1ccccc1)NC(=O)[C@H](Cc1ccc(O)cc1)NC(=O)CNC(=O)[C@H](Cc1c[nH]cn1)NC(=O)[C@@H]1CCCN1C(=O)[C@H](CC(=O)O)NC(=O)[C@H](CCC(=O)O)NC(=O)CNC(=O)[C@H](C)N)C(=O)N1CCC[C@H]1C(=O)NCC(=O)N[C@@H](CCC(N)=O)C(=O)N[C@@H](Cc1ccccc1)C(=O)N[C@@H](C)C(=O)O` [mC15] (H-AGEDPHGYFLPGQFA-OH; N-terminus and C-terminus assumed): at GPR1, the IC50 was > 10 µM; the “agonist activity, in words” value was “neither human nor mouse chemerin C15 peptides acted as agonists”; the “Rank Order” value was determined as 4; the “% Max Activity” value was found to be 27.8%. In addition, on GPR1, the “% Max Inhibition” value came out at 0% and the “antagonist activity, in words” value is “neither human nor mouse chemerin C15 peptides acted as antagonists”. In addition, at ChemR23 (CMKLR1), the EC50 was > 10 µM, the IC50 was > 10 µM, the “Rank Order” value worked out at 3 and the “% Max Activity” value came out at 0.4%. Besides, at ChemR23 (CMKLR1), the “% Max Inhibition” value turned out to be 0%; the “agonist activity, in words” value was “neither human nor mouse chemerin C15 peptides acted as agonists”; the “antagonist activity, in words” value was “neither human nor mouse chemerin C15 peptides acted as antagonists”. In addition, the EC50 at ChemR23 (CMKLR1) (read-out: RC50 (uM), EC50, Arrestin, Agonist, AssayTarget ChemR23) was > 10 µM. Moreover, the IC50 against mChemR23 was > 10 µM.

The term IC50 denotes the point on the concentration scale where inhibition reaches its midpoint. Read a high IC50 as weaker potency in that assay. For orientation: EC50 means the concentration that produces a half-maximal response.
